Experimental data as given in US20240336602A1 (Katholieke Universiteit Leuven, priority 2020, published 2024).
Several values for one entry are separate records, joined by “and”; a condition that tells them apart may be missing. Equal values may be shown once.

Target: T1, mouse TRPM3a2 (mTRPM3) ion channel (Mus musculus, UniProt J9SQF3)
T1 construct: expressed in transfected cells; host or cells: flip-in HEK293
Assay: TRPM3 ion channel driven Ca2+ uptake, Fluo-4 AM assay (PS-stimulated, overexpressing flip-in HEK293 cells)
Format: cell-based
Conditions: PS (50 μM) stimulated Ca2+ influx, HEK293, cpds 300-399
Description: In order to monitor the inhibition of the mouse TRPM3a2 (mTRPM3) ion channel by the compounds of the invention, a cellular system making use of an mTRPM3alpha2 or hTRPM3 overexpressing cell line (flip-in HEK293) was used. The TRPM3 channel was stimulated/opened with Pregnenolone sulfate (PS) (50 μM) which results in Ca^2+ influx.
For mTRPM3, the intracellular Ca^2+ was measured with a Calcium responsive dye, Fluor-4 AM ester (Invitrogen). Cells were cultured until a confluence of 80-90%, washed with Versene (Invitrogen) and detached from the surface by a short incubation with 0.05% Trypsin (Invitrogen). The trypsination process was stopped by the addition of complete cell culture medium (DMEM, glutamax, 10% FCS, NEAA, Pen-Strep). Cells were collected and resuspended in Krebs buffer without Calcium at RT.
Prior the cell seeding (±2000 cells/well into a black, 384 well plate (Greiner)) the diluted compound was added in the assay plate, together with the PS dissolved in Krebs buffer containing Calcium. […] Directly after cell addition the plates were read on an Envision fluorescence reader (Perkin Elmer) by an Excitation of 485 nm and emission at 535 nm.
Channel inhibition was calculated compared to a non-PS stimulated control versus a condition stimulated with PS (50 μM) with vehicle. The ability of the compounds of the invention to inhibit this activity was determined as: Percentage inhibition=[1-((RFU determined for sample with test compound present—RFU determined for sample with positive control inhibitor) divided by (RFU determined in the presence of vehicle—RFU determined for sample with positive control inhibitor))]*100.

T1 sequence (J9SQF3 1-1709 isoform J9SQF3-12): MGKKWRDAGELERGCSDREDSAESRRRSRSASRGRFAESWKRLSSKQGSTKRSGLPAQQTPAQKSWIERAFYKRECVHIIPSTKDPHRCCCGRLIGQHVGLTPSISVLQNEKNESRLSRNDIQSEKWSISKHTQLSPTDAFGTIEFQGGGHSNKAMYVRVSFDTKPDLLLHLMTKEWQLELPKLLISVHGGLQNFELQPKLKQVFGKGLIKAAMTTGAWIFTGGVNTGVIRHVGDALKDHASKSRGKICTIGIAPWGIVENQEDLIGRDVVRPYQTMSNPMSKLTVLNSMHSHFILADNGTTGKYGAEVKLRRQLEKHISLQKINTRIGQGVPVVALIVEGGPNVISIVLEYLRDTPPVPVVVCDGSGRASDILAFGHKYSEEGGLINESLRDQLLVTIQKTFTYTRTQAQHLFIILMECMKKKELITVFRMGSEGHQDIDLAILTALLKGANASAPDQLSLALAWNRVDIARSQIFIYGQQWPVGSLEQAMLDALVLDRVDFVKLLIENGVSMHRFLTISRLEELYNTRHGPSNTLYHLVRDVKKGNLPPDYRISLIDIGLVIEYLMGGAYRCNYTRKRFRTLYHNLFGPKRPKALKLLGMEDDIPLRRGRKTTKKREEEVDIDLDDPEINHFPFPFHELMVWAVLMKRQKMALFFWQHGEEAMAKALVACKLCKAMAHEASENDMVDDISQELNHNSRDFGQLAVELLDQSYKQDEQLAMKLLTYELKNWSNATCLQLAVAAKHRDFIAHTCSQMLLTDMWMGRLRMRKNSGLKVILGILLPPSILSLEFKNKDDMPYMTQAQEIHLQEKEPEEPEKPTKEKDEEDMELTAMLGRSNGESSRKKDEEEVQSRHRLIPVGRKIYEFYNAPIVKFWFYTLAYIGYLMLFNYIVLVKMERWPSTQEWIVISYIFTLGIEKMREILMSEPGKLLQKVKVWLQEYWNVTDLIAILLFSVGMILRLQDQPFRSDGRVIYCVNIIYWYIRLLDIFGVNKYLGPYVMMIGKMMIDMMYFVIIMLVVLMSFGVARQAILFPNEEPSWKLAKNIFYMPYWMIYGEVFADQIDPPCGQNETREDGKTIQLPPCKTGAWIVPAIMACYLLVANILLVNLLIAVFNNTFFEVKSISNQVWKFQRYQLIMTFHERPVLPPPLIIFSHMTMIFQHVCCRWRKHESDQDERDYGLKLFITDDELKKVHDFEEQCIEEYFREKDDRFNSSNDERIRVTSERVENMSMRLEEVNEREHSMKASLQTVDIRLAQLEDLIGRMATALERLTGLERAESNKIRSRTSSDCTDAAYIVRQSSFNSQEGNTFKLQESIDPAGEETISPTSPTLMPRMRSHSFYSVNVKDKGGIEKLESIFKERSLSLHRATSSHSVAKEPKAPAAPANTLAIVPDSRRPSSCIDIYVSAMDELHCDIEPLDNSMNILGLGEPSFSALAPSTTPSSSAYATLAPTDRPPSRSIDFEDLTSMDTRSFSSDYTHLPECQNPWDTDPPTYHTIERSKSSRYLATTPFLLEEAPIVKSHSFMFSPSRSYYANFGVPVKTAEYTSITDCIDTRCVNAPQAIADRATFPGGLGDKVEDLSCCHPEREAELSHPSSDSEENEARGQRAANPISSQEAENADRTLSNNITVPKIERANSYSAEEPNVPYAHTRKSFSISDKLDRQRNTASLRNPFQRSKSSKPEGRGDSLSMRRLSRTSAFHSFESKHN

Question: Which IC50 does the source give for `COc1ncccc1COc1ccc2oc(C(F)F)c(C(=O)NC3(CO)CCOCC3)c2c1` [cpd 312, 2-(difluoromethyl)-N-(4-(hydroxymethyl)tetrahydro-2H-pyran-4-yl)-5-((2-methoxypyridin-3-yl)methoxy)benzofuran-3-carboxamide] here?
Answer: 1000 to 20000 nM

Question: Which IC50 does the source give for `Cc1oc2ccc(OCc3c(F)cnn3C)cc2c1C(=O)NC1(CO)CCCNC1=O` (single isomer, unassigned) [355 - En 1] here?
Answer: ≤ 1000 nM

Question: With `Cc1ncsc1COc1ccc2oc(C(F)F)c(C(=O)NC3(CO)CC3)c2c1` [cpd 308, 2-(difluoromethyl)-N-(1-(hydroxymethyl)cyclopropyl)-5-((4-methylthiazol-5-yl)methoxy)benzofuran-3-carboxamide] as the molecule, how does the IC50 read?
Answer: 1000 to 20000 nM

Same assay, conditions: PS (50 μM) stimulated, cpd 001-199

Question: How did the IC50 turn out when `Cc1oc2ccc(OCc3ccccn3)cc2c1C(=O)O` [cpd 005, 2-methyl-5-(pyridin-2-ylmethoxy)benzofuran-3-carboxylic acid] was run?
Answer: 1000 to 20000 nM

Question: Which IC50 does the source give for `Cc1oc2ccc(OCc3cccc4cnccc34)cc2c1C(=O)NC1CCN(C)CC1` [cpd 060, 5-(isoquinolin-5-ylmethoxy)-2-methyl-N-(1-methylpiperidin-4-yl)benzofuran-3-carboxamide] here?
Answer: 1000 to 20000 nM

Question: With `Cc1oc2ccc(OCc3cncc(C(F)(F)F)c3)cc2c1C(=O)NC1CCN(C(=O)OC(C)(C)C)CC1(F)F` (stereo not shown) [cpd 095, tert-butyl 3,3-difluoro-4-(2-methyl-5-((5-(trifluoromethyl)pyridin-3-yl)methoxy)benzofuran-3-carboxamido)piperidine-1-carboxylate] as the molecule, how does the IC50 read?
Answer: 1000 to 20000 nM

Question: Which IC50 does the source give for `Cc1oc2ccc(OCc3cccnc3C(F)(F)F)cc2c1C(=O)NC1CN(CCO)CC1(F)F` (single isomer, unassigned) [134 - En 1] here?
Answer: 1000 to 20000 nM

Question: `Cc1oc2ccc(OCc3cnccc3Cl)cc2c1C(=O)NC1CCN(C(=O)OC(C)(C)C)CC1(F)F` (stereo not shown) [cpd 093, tert-butyl 4-(5-((4-chloropyridin-3-yl)methoxy)-2-methylbenzofuran-3-carboxamido)-3,3-difluoro-piperidine-1-carboxylate] was tested. Which IC50 did it give?
Answer: 1000 to 20000 nM

Question: With `Cc1oc2ccc(OCc3cccnc3C(F)(F)F)cc2c1C(=O)NC1CN(C)CC(F)(F)C1` (single isomer, unassigned) [141 - En 1] as the molecule, how does the IC50 read?
Answer: ≤ 1000 nM

Question: `Cc1oc2ccc(OCc3cccnc3C(F)(F)F)cc2c1C(=O)NC1CCNCC1(F)F` (stereo not shown) [cpd 074, N-(3,3-difluoropiperidin-4-yl)-2-methyl-5-((2-(trifluoromethyl)pyridin-3-yl)methoxy)benzofuran-3-carboxamide] was tested. Which IC50 did it give?
Answer: ≤ 1000 nM

Question: For `Cc1ncsc1COc1ccc2oc(C)c(C(=O)NC3CN(CC(F)(F)F)CC3(F)F)c2c1` (single isomer, unassigned) [155 - En 1, N-(4,4-difluoro-1-(2,2,2-trifluoroethyl)pyrrolidin-3-yl)-2-methyl-5-((4-methylthiazol-5-yl)me-thoxy)benzofuran-3-carboxamide], which IC50 is on record?
Answer: ≤ 1000 nM

Question: `Cc1oc2ccc(OCc3cccnc3C(F)(F)F)cc2c1C(=O)NC1CCN(C)CC1(F)F` (single isomer, unassigned) [130 - En 1] was tested. Which IC50 did it give?
Answer: ≤ 1000 nM

Question: Which IC50 does the source give for `Cc1oc2ccc(OCc3ncccc3C(F)(F)F)cc2c1C(=O)NC1CCN(C(=O)OC(C)(C)C)CC1(F)F` (stereo not shown) [cpd 096, tert-butyl 3,3-difluoro-4-(2-methyl-5-((3-(trifluoromethyl)pyridin-2-yl)methoxy)benzofuran-3-carboxamido)piperidine-1-carboxylate] here?
Answer: 1000 to 20000 nM

Question: For `Cc1oc2ccc(OCc3cccc(N(C)C)n3)cc2c1C(=O)NC1CCN(C(=O)OC(C)(C)C)CC1(F)F` (stereo not shown) [cpd 078, tert-butyl 4-(5-((6-(dimethylamino)pyridin-2-yl)methoxy)-2-methylbenzofuran-3-carboxamido)-3,3-difluoropiperidine-1-carboxylate], which IC50 is on record?
Answer: 1000 to 20000 nM

Question: For `Cc1ncsc1COc1ccc2oc(C)c(C(=O)NC3CN(CCO)CC3(F)F)c2c1` (single isomer, unassigned) [151 - En 1], which IC50 is on record?
Answer: ≤ 1000 nM

Question: Which IC50 does the source give for `Cc1cc2oc(C)c(C(=O)NC3(CO)CCOCC3)c2cc1OCc1scnc1C` [compound 185, N-(4-(hydroxymethyl)tetrahydro-2H-pyran-4-yl)-2,6-dimethyl-5-((4-methylthiazol-5-yl)methoxy)-benzofuran-3-carboxamide] here?
Answer: 1000 to 20000 nM

Question: How did the IC50 turn out when `Cc1oc2ccc(OCc3cccc(C(F)(F)F)n3)cc2c1C(=O)NC1CCNC1=O` (stereo not shown) [cpd 065, 2-methyl-N-(2-oxopyrrolidin-3-yl)-5-((6-(trifluoromethyl)pyridin-2-yl)methoxy)benzofuran-3-carboxamide] was run?
Answer: 1000 to 20000 nM

Question: With `Cc1oc2ccc(OCc3cccnc3C(F)(F)F)cc2c1C(=O)NC1CN(CCO)CC1(F)F` (single isomer, unassigned) [134 - En 2] as the molecule, how does the IC50 read?
Answer: ≤ 1000 nM

Question: For `Cc1oc2ccc(OCc3ccn(C)n3)cc2c1C(=O)N[C@H]1CCNC1` [cpd 023, (S)-2-methyl-5-((1-methyl-1H-pyrazol-3-yl)methoxy)-N-(pyrrolidin-3-yl)benzofuran-3-carboxamide], which IC50 is on record?
Answer: 1000 to 20000 nM

Question: How did the IC50 turn out when `COc1ncccc1COc1ccc2oc(C)c(C(=O)NC3CCN(C(=O)OC(C)(C)C)CC3(F)F)c2c1` (stereo not shown) [cpd 089, tert-butyl 3,3-difluoro-4-(5-((2-methoxypyridin-3-yl)methoxy)-2-methylbenzofuran-3-carbox-amido)piperidine-1-carboxylate] was run?
Answer: 1000 to 20000 nM

Question: How did the IC50 turn out when `Cc1ncsc1COc1ccc2oc(C)c(C(=O)NC3CN(C)CCC3(F)F)c2c1` (single isomer, unassigned) [118 - En 1] was run?
Answer: ≤ 1000 nM

Same assay, conditions: PS (50 μM) stimulated, cpds. 400-499

Question: With `COc1ncccc1COc1ccc2oc(C)c(C(=O)NC(C)C(N)=O)c2c1` (single isomer, unassigned) [437 - En 1] as the molecule, how does the IC50 read?
Answer: ≤ 1000 nM

Question: How did the IC50 turn out when `Cc1oc2ccc(OCc3ccnn3C)cc2c1C(=O)NC(CO)C(N)=O` (single isomer, unassigned) [452 - En 1] was run?
Answer: ≤ 1000 nM

Question: How did the IC50 turn out when `Cc1oc2ccc(OCc3ccnn3C)cc2c1C(=O)NC(C)C(N)=O` (single isomer, unassigned) [433 - En 1] was run?
Answer: ≤ 1000 nM

Question: `Cc1ncsc1COc1ccc2oc(C)c(C(=O)NC3(C)CCN(CCO)C3=O)c2c1` (single isomer, unassigned) [410 - En 1] was tested. Which IC50 did it give?
Answer: ≤ 1000 nM

Question: How did the IC50 turn out when `Cc1ncc(COc2ccc3oc(C)c(C(=O)NC(CO)CN(C)C)c3c2)s1` (single isomer, unassigned) [412 - En 1] was run?
Answer: ≤ 1000 nM

Question: For `Cc1oc2ccc(OCc3cccnc3O)cc2c1C(=O)NC(C)C(N)=O` (single isomer, unassigned) [436 - En 1], which IC50 is on record?
Answer: ≤ 1000 nM

Question: Which IC50 does the source give for `Cc1oc2ccc(OCc3nccn3C)cc2c1C(=O)NC1CCN(CCO)C1=O` (single isomer, unassigned) [403 - En 2] here?
Answer: ≥ 20000 nM

Question: For `Cc1ncsc1COc1ccc2oc(C)c(C(=O)NC(COC(F)F)C(N)=O)c2c1` (stereo not shown) [448 - En 1], which IC50 is on record?
Answer: ≤ 1000 nM

Question: With `Cc1ncsc1COc1ccc2oc(C)c(C(=O)NC(CCO)C(N)=O)c2c1` (stereo not shown) [469 - En 1] as the molecule, how does the IC50 read?
Answer: ≤ 1000 nM

Question: Which IC50 does the source give for `Cc1ncc(COc2ccc3oc(C)c(C(=O)NC(C)C(N)=O)c3c2)s1` (stereo not shown) [434 - En 2] here?
Answer: ≤ 1000 nM

Same assay, conditions: PS (50 μM) stimulated, cpds. 500-599

Question: `Cc1ccc(COc2ccc3oc(C)c(C(=O)NC4(CO)CCCNC4=O)c3c2)cn1` (single isomer, unassigned) [514 - En 1] was tested. Which IC50 did it give?
Answer: ≤ 1000 nM

Question: How did the IC50 turn out when `Cc1ncc(COc2ccc3oc(C)c(C(=O)NC4(CO)CCCNC4=O)c3c2)o1` (single isomer, unassigned) [511 - En 2] was run?
Answer: 1000 to 20000 nM

Question: Which IC50 does the source give for `Cc1ncsc1COc1ccc2oc(C)c(C(=O)N(C)C3(C#N)COC3)c2c1` [compound 599, N-(3-cyanooxetan-3-yl)-N,2-dimethyl-5-((4-methylthiazol-5-yl)methoxy)benzofuran-3-carboxamide] here?
Answer: 1000 to 20000 nM

Question: `Cc1ncc(COc2ccc3oc(C)c(C(=O)NC4(CO)CCNC4=O)c3c2)o1` (stereo not shown) [515 - En 1] was tested. Which IC50 did it give?
Answer: ≤ 1000 nM and 1000 to 20000 nM

Question: How did the IC50 turn out when `Cc1ncsc1COc1ccc2oc(C)c(C(=O)NC3(CN)COC3)c2c1` [cpd 507, N-(3-(aminomethyl)oxetan-3-yl)-2-methyl-5-((4-methylthiazol-5-yl)methoxy)benzofuran-3-carboxamide] was run?
Answer: 1000 to 20000 nM

Same assay, conditions: PS (50 μM) stimulated, cpds. 600-666

Question: For `Cc1oc2ccc(OCc3cccnc3O)cc2c1C(=O)NC1CNCC1(F)F` (single isomer, unassigned) [640 - En 1], which IC50 is on record?
Answer: ≤ 1000 nM

Question: Which IC50 does the source give for `Cc1oc2ccc(OCc3cccc(=O)n3C)cc2c1C(=O)NC1(CO)CCOCC1` [cpd 610, N-(4-(hydroxymethyl)tetrahydro-2H-pyran-4-yl)-2-methyl-5-((1-methyl-6-oxo-1,6-dihydropyridin-2-yl)methoxy)benzofuran-3-carboxamide] here?
Answer: 1000 to 20000 nM

Question: Which IC50 does the source give for `Cc1oc2ccc(OCc3ccnn3C)cc2c1C(=O)NC1COCC1O` (single isomer, unassigned) [655 - En 2] here?
Answer: ≤ 1000 nM

Question: Which IC50 does the source give for `Cc1oc2ccc(OCc3ccnn3C)cc2c1C(=O)NC1COCC1O` (single isomer, unassigned) [656 - En 1] here?
Answer: 1000 to 20000 nM

Same assay, conditions: PS (50 μM) stimulated, cpds. 667-751

Question: How did the IC50 turn out when `Cc1ncsc1COc1ccc2oc(C)c(C(=O)NC(Cn3cncn3)C(N)=O)c2c1` (single isomer, unassigned) [729 - En 1] was run?
Answer: ≤ 1000 nM

Question: Which IC50 does the source give for `Cc1oc2ccc(OCc3cccnn3)cc2c1C(=O)NC1(CO)CCNC1=O` (single isomer, unassigned) [734 - En 1] here?
Answer: ≤ 1000 nM

Question: Which IC50 does the source give for `Cc1oc2ccc(OCc3ccc(F)cn3)cc2c1C(=O)NC1(CO)CCNC1=O` (single isomer, unassigned) [735 - En 1] here?
Answer: ≤ 1000 nM
